Data on 13 compounds can be found in patent US6348445B1, “Biologically active peptides with reduced toxicity in animals and a method for preparing same” (priority 1992, dated 2002).

Where a SMILES comes first, the peptide text is derived from it. The star is where a group is joined. Octanoyl = CCCCCCCC(=O)*

What all share (assay type): cell-based
The subject of experiment [1] is P. aeruginosa strain ATCC 27853. As to conditions: ATCC 27853. The text has this:
(§1) Table I, which follows, indicates the Minimal Inhibitory Concentration (MIC) in […] of various peptides against S.aureus strain ATCC 25923(S), P. aeruginosa strain ATCC 27853(P), E. coli ATCC strain 25922(E), and C. 4albicans (CA). […] The peptides are unsubstituted at the N-terminal; substituted with an acetyl group at the N-terminal, as indicated by Ac-; substituted with an octanoyl group at the N-terminal, as indicated by Oct-; substituted with spinogosine, as indicated by Sph-; substituted with a succinyl group, as indicated by Suc-; substituted with a hexanoyl group, as indicated by Hex-; substituted with a heptanoyl group, as indicated by Hep-; substituted with a valeryl group, as indicated by Val-; substituted with a myristryl group, as indicated by Myr-; or substituted with an ibuprofyl group, as indicated by Ibu-;
(§2) The procedure for the anti-bacterial assay is based upon the guidelines of the National Committee for Clinical Laboratory Standards, Document M7-T2, Volume 8, No. 8, 1988, which document is entirely incorporated herein by reference.
(§3) Stock solutions of peptides, with and without the appropriate substitutions, were prepared at a concentration of 512 μg/ml in sterile deionized distilled water and stored at −70° C.
(§4) The stock peptide solution was diluted in serial dilutions (1:2) down the wells of a microtiter plate so that the final concentrations of peptides in the wells were 0.25, 0.50, 1, 2, 4, 8, 16, 32, 64, 128 and 256 μg/ml. 1-5×10^5 CFUs/ml of either S. aureus ATCC 25923, E. coli ATCC 25922, P. aeruginosa ATCC 27853, or C. albicans, were added to the wells in full strength Mueller Hinton broth (BBL 11443) from a mid-log culture. The inoculum was standardized spectrophotometrically at 600 nm and was verified by colony counts. The plates were incubated for 16-20 hours at 37° C., and the minimal inhibitory concentration (MIC) for each peptide was determined. Minimal inhibitory concentration is defined as the lowest concentration of peptide which produces a clear well in the microtiter plate. The minimal inhibitory concentration of each of the peptides with and/or without the appropriate substitutions is given in Table I below.
(§5) The in vitro anti-microbial activities of the methane sulfonate derivatives were determined according to the methods described in Examples 1 and 2. The activities against ATCC strains of S. aureus, E. coli, P. aeruginosa, and C. albicans, and the hemolysis of red blood cells were compared to the parent compound (Table IV). The activities for Compound 843 (Oct-SEQ ID NO:143) methane sulfonate against clinical strains of P. aeruginosa isolated from cystic fibrosis patients were compared to the parent compound (Table V). The activity for Compound 469 (Oct-SEQ ID NO:27) methane sulfonate against P. gingivalis was compared to the parent compound (Table VI).

Experiment [2] has as its system E. coli ATCC strain 25922. The experiment in a line: Minimal Inhibitory Concentration, microtiter broth dilution. The settings on record: ATCC strain 25922.
Source text: as §1, §2, §3, §4, §5
(In general: Broth dilution looks for growth in wells or tubes with falling amounts of substance.)

In a further experiment the test system is C. albicans.
Source text: as §1, §2, §3, §4

On to `CCCCCCCC(=O)N[C@@H](CCCCN)C(=O)N[C@@H](Cc1ccccc1)C(=O)N[C@@H](C)C(=O)N[C@@H](CCCCN)C(=O)N[C@@H](Cc1ccccc1)C(=O)N[C@@H](C)C(=O)N[C@@H](CCCCN)C(=O)N[C@@H](CCCCN)C(=O)N[C@@H](Cc1ccccc1)C(=O)N[C@@H](C)C(N)=O` [Oct-(SEQ ID NO: 121)-NH2] (Octanoyl-KFAKFAKKFA-NH2), for which, in experiment [1], the “Minimal Inhibitory Concentration P” value is 256 µg/mL. For the same compound, the “Minimal Inhibitory Concentration E” value in experiment [2] was 256 µg/mL. Further, the “Minimal Inhibitory Concentration CA” value with C. albicans turned out to be 256 µg/mL.
`CCCCCCCC(=O)N[C@@H](CCCCN)C(=O)N[C@@H](CCCCN)C(=O)N[C@@H](Cc1ccccc1)C(=O)N[C@@H](C)C(=O)N[C@@H](CCCCN)C(=O)N[C@@H](Cc1ccccc1)C(=O)N[C@@H](C)C(=O)N[C@@H](CCCCN)C(=O)N[C@@H](CCCCN)C(=O)N[C@@H](Cc1ccccc1)C(=O)N[C@@H](C)C(N)=O` [Oct-(SEQ ID NO: 122)-NH2] (Octanoyl-KKFAKFAKKFA-NH2): the “Minimal Inhibitory Concentration P” value in experiment [1] worked out at 32 µg/mL. Also, in experiment [2], the “Minimal Inhibitory Concentration E” value came out at 64 µg/mL. For the same compound, the “Minimal Inhibitory Concentration CA” value in the experiment on C. albicans came to 64 µg/mL.
As for `CCCCCCCC(=O)N[C@@H](CCCCN)C(=O)N[C@@H](Cc1ccccc1)C(=O)N[C@@H](C)C(=O)N[C@@H](CCCCN)C(=O)N[C@@H](CCCCN)C(=O)N[C@@H](Cc1ccccc1)C(=O)N[C@@H](C)C(=O)N[C@@H](CCCCN)C(=O)N[C@@H](Cc1ccccc1)C(=O)N[C@@H](C)C(=O)N[C@@H](CCCCN)C(=O)N[C@@H](CCCCN)C(=O)N[C@@H](Cc1ccccc1)C(=O)N[C@@H](C)C(N)=O` [Oct-(SEQ ID NO: 125)-NH2] (Octanoyl-KFAKKFAKFAKKFA-NH2), the “Minimal Inhibitory Concentration P” value in experiment [1] came out at 8 µg/mL. In experiment [2], the “Minimal Inhibitory Concentration E” value was determined as 16 µg/mL. Moreover, the “Minimal Inhibitory Concentration CA” value in the experiment on C. albicans was found to be 64 µg/mL.
Taken in the same sequence, the figures for `CCCCCCCC(=O)N[C@@H](CCCNC(=N)N)C(=O)N[C@@H](Cc1ccccc1)C(=O)N[C@@H](C)C(=O)N[C@@H](CCCNC(=N)N)C(=O)N[C@@H](CCCNC(=N)N)C(=O)N[C@@H](Cc1ccccc1)C(=O)N[C@@H](C)C(=O)N[C@@H](CCCNC(=N)N)C(=O)N[C@@H](Cc1ccccc1)C(=O)N[C@@H](C)C(=O)N[C@@H](CCCNC(=N)N)C(=O)N[C@@H](CCCNC(=N)N)C(=O)N[C@@H](Cc1ccccc1)C(=O)N[C@@H](C)C(N)=O` [Oct-(SEQ ID NO: 126)-NH2] (Octanoyl-RFARRFARFARRFA-NH2) were 8 µg/mL, 8 µg/mL and 64 µg/mL.
Taken in the same sequence, the figures for `CCCCCCCC(=O)N[C@@H](CCC(=O)O)C(=O)N[C@@H](CCCCN)C(=O)N[C@@H](CCCCN)C(=O)N[C@@H](CC(C)C)C(=O)N[C@@H](CC(C)C)C(=O)N[C@@H](CCCCN)C(=O)N[C@@H](CCCCN)C(=O)N[C@@H](CC(C)C)C(=O)N[C@@H](CCCCN)C(=O)N[C@@H](CCCCN)C(=O)N[C@@H](CC(C)C)C(N)=O` [Oct-(SEQ ID NO: 127)-NH2] (Octanoyl-EKKLLKKLKKL-NH2) were 32 µg/mL, 32 µg/mL and 128 µg/mL.
Taken in the same sequence, the figures for `CCCCCCCC(=O)N[C@@H](CCCCN)C(=O)N[C@@H](CCCCN)C(=O)N[C@@H](CCCCN)C(=O)N[C@@H](CC(C)C)C(=O)N[C@@H](CC(C)C)C(=O)N[C@@H](CCCCN)C(=O)N[C@@H](CCCCN)C(=O)N[C@@H](CC(C)C)C(=O)N[C@@H](CCCCN)C(=O)N[C@@H](CCCCN)C(=O)N[C@@H](CC(C)C)C(N)=O` [Oct-(SEQ ID NO: 128)-NH2] (Octanoyl-KKKLLKKLKKL-NH2) were 64 µg/mL, 32 µg/mL and 32 µg/mL.
With `CCCCCCCC(=O)N[C@@H](CCCCN)C(=O)N[C@@H](CC(C)C)C(=O)N[C@@H](CCCCN)C(=O)N[C@@H](CCCCN)C(=O)N[C@@H](CCCCN)C(=O)N[C@@H](Cc1ccccc1)C(=O)N[C@@H](CC(C)C)C(=O)N[C@@H](CCCCN)C(=O)N[C@@H](CCCCN)C(=O)N[C@@H](CC(C)C)C(N)=O` [Oct-(SEQ ID NO: 129)-NH2] (Octanoyl-KLKKKFLKKL-NH2), in experiment [1], the “Minimal Inhibitory Concentration P” value came out at 16 µg/mL. Also, the “Minimal Inhibitory Concentration E” value in experiment [2] amounted to 32 µg/mL. In the experiment on C. albicans, the “Minimal Inhibitory Concentration CA” value amounted to 128 µg/mL.
Taken in the same sequence, the figures for `CCCCCCCC(=O)N[C@@H](CC(C)C)C(=O)N[C@@H](CCCCN)C(=O)N[C@@H](CCCCN)C(=O)N[C@@H](CC(C)C)C(=O)N[C@@H](CC(C)C)C(=O)N[C@@H](CCC(=O)O)C(=O)N[C@@H](CCCCN)C(=O)N[C@@H](CC(C)C)C(=O)N[C@@H](CCCCN)C(=O)N[C@@H](CCCCN)C(=O)N[C@@H](CC(C)C)C(N)=O` [Oct-(SEQ ID NO: 130)-NH2] (Octanoyl-LKKLLEKLKKL-NH2) were 4 µg/mL, 4 µg/mL and 8 µg/mL.
Taken in the same sequence, the figures for `CCCCCCCC(=O)N[C@@H](CC(C)C)C(=O)N[C@@H](CCCCN)C(=O)N[C@@H](CCCCN)C(=O)N[C@@H](CC(C)C)C(=O)N[C@@H](CC(C)C)C(=O)N[C@@H](CCCCN)C(=O)N[C@@H](CCC(=O)O)C(=O)N[C@@H](CC(C)C)C(=O)N[C@@H](CCCCN)C(=O)N[C@@H](CCCCN)C(=O)N[C@@H](CC(C)C)C(N)=O` [Oct-(SEQ ID NO: 131)-NH2] (Octanoyl-LKKLLKELKKL-NH2) were 8 µg/mL, 4 µg/mL and 64 µg/mL.
Taken in the same sequence, the figures for `CCCCCCCC(=O)N[C@@H](CC(C)C)C(=O)N[C@@H](CCCCN)C(=O)N[C@@H](CCCCN)C(=O)N[C@@H](CC(C)C)C(=O)N[C@@H](CC(C)C)C(=O)N[C@@H](CCCCN)C(=O)N[C@@H](CCCCN)C(=O)N[C@@H](CC(C)C)C(=O)N[C@@H](CCCCN)C(=O)N[C@@H](CCCCN)C(=O)N[C@@H](CC(C)C)C(=O)N[C@@H](CS)C(N)=O` [Oct-(SEQ ID NO: 133)-NH2] (Octanoyl-LKKLLKKLKKLC-NH2) were 32 µg/mL, 32 µg/mL and 128 µg/mL.
`CCCCCCCC(=O)N[C@@H](CCCCN)C(=O)N[C@@H](CCCCN)C(=O)N[C@@H](Cc1ccccc1)C(=O)NCC(=O)N[C@@H](CCCCN)C(=O)N[C@@H](CCCCN)C(=O)N[C@@H](Cc1ccccc1)C(=O)N[C@H](C(=O)N[C@@H](CCCCN)C(=O)N[C@H](C(=O)N[C@@H](CC(C)C)C(=O)N[C@@H](CCCCN)C(=O)N[C@@H](CCCCN)C(N)=O)[C@@H](C)CC)C(C)C` [Oct-(SEQ ID NO: 135)-NH2] (Octanoyl-KKFGKKFVKILKK-NH2): the “Minimal Inhibitory Concentration P” value in experiment [1] stood at 8 µg/mL. Besides, the “Minimal Inhibitory Concentration E” value in experiment [2] amounted to 64 µg/mL. The “Minimal Inhibitory Concentration CA” value in the experiment on C. albicans turned out to be 64 µg/mL.
With `CCCCCCCC(=O)N[C@@H](CC(C)C)C(=O)N[C@@H](CCCCN)C(=O)N[C@@H](CCCCN)C(=O)N[C@@H](CC(C)C)C(=O)N[C@@H](CC(C)C)C(=O)N[C@@H](CCCCN)C(=O)N[C@@H](CCCCN)C(N)=O` [Oct-(SEQ ID NO: 137)-NH2] (Octanoyl-LKKLLKK-NH2), in experiment [1], the “Minimal Inhibitory Concentration P” value was found to be 256 µg/mL. In addition, the “Minimal Inhibitory Concentration E” value in experiment [2] was greater than 256 µg/mL. For the same compound, the “Minimal Inhibitory Concentration CA” value in the experiment on C. albicans was determined as 256 µg/mL.
With `CCCCCCCC(=O)N[C@@H](CC(C)C)C(=O)N[C@@H](CCCCN)C(=O)N[C@@H](CCCCN)C(=O)N[C@@H](CC(C)C)C(=O)N[C@@H](CC(C)C)C(=O)N[C@@H](CCCCN)C(=O)N[C@@H](CC(C)C)C(=O)N[C@@H](CC(C)C)C(=O)N[C@@H](CCCCN)C(N)=O` [Oct-(SEQ ID NO: 138)-NH2] (Octanoyl-LKKLLKLLK-NH2), the “Minimal Inhibitory Concentration P” value in experiment [1] amounted to 8 µg/mL. Further, the “Minimal Inhibitory Concentration E” value in experiment [2] came to 8 µg/mL. For the same compound, in the experiment with C. albicans, the “Minimal Inhibitory Concentration CA” value was found to be 64 µg/mL.
